Laboratory results taken from US12448433B2, “Human ApoB100 epitopes, methods and uses for modulating inflammatory responses, and treating adverse cardiovascular events, disease and atherosclerosis” (LA JOLLA INSTITUTE FOR ALLERGY AND IMMUNOLOGY, priority 2015, dated 2025).
No end group written: not given here.

Assays:
[1] = biological target: DPB1*04:02; experiment: Peptide binding to HLA-DP allele, competition assay; parameters: species or system human
From the text: (§1) Peptide binding to MHC-II requires anchor residues in certain positions and thus can be predicted using computer algorithms. Affinity can be measured experimentally using a competition assay (1). Both are excellent screening tools. However, affinity must be measured separately for each MHC-II allele. Humans express molecules encoded in four different MHC-II loci, denominated HLA-DRB1, DRB3/4/5, DP and DQ. Allelic variation is large, and most people are heterozygous at each locus, thus expressing up to 8 relevant MHC-II alleles. CD4 T cell responses strictly require that the antigenic peptide binds to the relevant MHC-II.
(§2) To identify peptides that could potentially be used in human patients, 30 peptides were screened for binding to 26 HLA alleles by competition assay.

[2] = biological target: DPB1*05:01; experiment: as above; parameters: species or system human
From the text: as §1, §2

[3] = biological target: T1, DPB1*04:01 (Homo sapiens, UniProt P04440); experiment: as above
T1 sequence (P04440 30-258): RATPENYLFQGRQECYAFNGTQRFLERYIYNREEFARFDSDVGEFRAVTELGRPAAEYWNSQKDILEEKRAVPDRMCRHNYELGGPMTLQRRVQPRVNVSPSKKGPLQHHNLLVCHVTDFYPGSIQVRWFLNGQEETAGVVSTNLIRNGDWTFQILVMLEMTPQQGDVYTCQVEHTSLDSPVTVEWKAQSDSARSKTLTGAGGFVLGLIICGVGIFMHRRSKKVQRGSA
T1 sequence (P20036 29-260 partner): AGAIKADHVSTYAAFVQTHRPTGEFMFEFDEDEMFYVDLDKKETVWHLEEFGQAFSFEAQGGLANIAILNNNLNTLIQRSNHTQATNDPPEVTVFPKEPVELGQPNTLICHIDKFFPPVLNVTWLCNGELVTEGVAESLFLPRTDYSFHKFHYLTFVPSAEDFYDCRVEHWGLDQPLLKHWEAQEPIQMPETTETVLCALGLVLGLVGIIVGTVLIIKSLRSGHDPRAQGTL
From the text: as §1, §2

[4] = biological target: DQB1*06:02; experiment: Peptide binding to HLA-DQ allele, competition assay; parameters: species or system human
From the text: as §1, §2

[5] = biological target: DPB1*14:01; experiment: Peptide binding to HLA-DP allele, competition assay; parameters: species or system human
From the text: as §1, §2

[6] = biological target: DQB1*05:01; experiment: Peptide binding to HLA-DQ allele, competition assay; parameters: species or system human
From the text: as §1, §2

[7] = biological target: DPB1*02:01; experiment: Peptide binding to HLA-DP allele, competition assay; parameters: species or system human
From the text: as §1, §2

Compound | IC50 [1] [nM] | IC50 [2] [nM] | IC50 [3] [nM] | IC50 [4] [nM] | IC50 [5] [nM] | IC50 [6] [nM] | IC50 [7] [nM]
CC(C)C[C@H](NC(=O)[C@H](CC(C)C)NC(=O)[C@H](CC(C)C)NC(=O)[C@H](CC(C)C)NC(=O)[C@H](C)NC(=O)[C@@H]1CCCN1C(=O)[C@H](CC(C)C)NC(=O)[C@H](C)NC(=O)[C@H](CC(C)C)NC(=O)[C@H](CC(C)C)NC(=O)[C@H](C)NC(=O)[C@H](CC(C)C)NC(=O)[C@H](CC(C)C)NC(=O)[C@H](C)NC(=O)[C@@H]1CCCN1)C(=O)O [Peptide 3563.001] | 1630 | 6560 | 14000 | 24200 |  |  | 
CC[C@H](C)[C@H](NC(=O)[C@H](CC(C)C)NC(=O)[C@@H](N)CC(C)C)C(=O)N[C@@H](CC(=O)O)C(=O)N[C@H](C(=O)N[C@H](C(=O)N[C@H](C(=O)N[C@@H](Cc1ccc(O)cc1)C(=O)N[C@@H](CC(C)C)C(=O)N[C@H](C(=O)N[C@@H](C)C(=O)N[C@@H](CC(C)C)C(=O)N[C@H](C(=O)N1CCC[C@H]1C(=O)N[C@@H](CCC(=O)O)C(=O)O)[C@@H](C)CC)C(C)C)[C@@H](C)O)C(C)C)C(C)C [Peptide 3563.0002] |  |  |  | 38800 | 8570 | 3620 | 
CC[C@H](C)[C@H](NC(=O)[C@H](CC(=O)O)NC(=O)[C@H](CC(C)C)NC(=O)[C@H](CC(C)C)NC(=O)[C@H](CCC(=O)O)NC(=O)[C@@H](N)CCC(N)=O)C(=O)N[C@@H](C)C(=O)N[C@@H](CC(N)=O)C(=O)N[C@@H](Cc1ccc(O)cc1)C(=O)N[C@@H](CC(C)C)C(=O)N[C@@H](CCSC)C(=O)N[C@@H](CCC(=O)O)C(=O)N[C@@H](CCC(N)=O)C(=O)N[C@H](C(=O)N[C@@H](CCC(N)=O)C(=O)O)[C@@H](C)CC [Peptide 3563.0003] | 182 |  | 2580 | 2430 |  | 4 | 1780
CC[C@H](C)[C@H](NC(=O)[C@H](Cc1ccc(O)cc1)NC(=O)[C@H](Cc1c[nH]cn1)NC(=O)[C@H](CC(C)C)NC(=O)[C@@H](N)Cc1ccccc1)C(=O)N[C@@H](Cc1ccccc1)C(=O)N[C@@H](CCSC)C(=O)N[C@@H](CCC(=O)O)C(=O)N[C@@H](CC(N)=O)C(=O)N[C@@H](C)C(=O)N[C@@H](Cc1ccccc1)C(=O)N[C@@H](CCC(=O)O)C(=O)N[C@@H](CC(C)C)C(=O)N1CCC[C@H]1C(=O)N[C@H](C(=O)O)[C@@H](C)O [Peptide 3563.0006] | 4.4 |  | 32 |  |  | 39 | 40
CC[C@H](C)[C@H](NC(=O)CNC(=O)[C@H](CCSC)NC(=O)[C@H](CC(N)=O)NC(=O)[C@@H](NC(=O)[C@@H](NC(=O)[C@H](Cc1ccccc1)NC(=O)[C@H](CCC(=O)O)NC(=O)[C@@H](N)C(C)C)C(C)C)[C@@H](C)O)C(=O)N[C@H](C(=O)N[C@H](C(=O)N1CCC[C@H]1C(=O)N[C@@H](CC(=O)O)C(=O)N[C@@H](Cc1ccccc1)C(=O)N[C@@H](C)C(=O)O)[C@@H](C)CC)[C@@H](C)CC [Peptide 3563.0007] |  | 6690 |  | 8400 | 15600 | 228 | 12
CC(C)C[C@H](NC(=O)[C@H](CC(C)C)NC(=O)[C@H](Cc1ccccc1)NC(=O)[C@H](CCCCN)NC(=O)[C@H](CO)NC(=O)[C@H](Cc1ccc(O)cc1)NC(=O)[C@H](CC(C)C)NC(=O)[C@@H](N)CCC(N)=O)C(=O)N[C@@H](CCCCN)C(=O)N[C@@H](C)C(=O)N[C@@H](CCC(=O)O)C(=O)N1CCC[C@H]1C(=O)N[C@@H](CC(C)C)C(=O)N[C@@H](C)C(=O)N[C@@H](Cc1ccccc1)C(=O)O [Peptide 3563.0011] |  | 83 |  |  | 51 | 588 | 
CC[C@H](C)[C@H](NC(=O)[C@H](CCC(=O)O)NC(=O)[C@H](CC(=O)O)NC(=O)[C@@H](NC(=O)[C@@H](NC(=O)[C@H](CC(N)=O)NC(=O)[C@H](C)NC(=O)[C@@H](NC(=O)[C@H](C)NC(=O)[C@@H](NC(=O)[C@H](CCCCN)NC(=O)[C@H](CC(C)C)NC(=O)[C@H](CC(=O)O)NC(=O)[C@H](Cc1c[nH]cn1)NC(=O)[C@@H](N)CC(C)C)[C@@H](C)CC)[C@@H](C)CC)[C@@H](C)CC)[C@@H](C)CC)C(=O)O [Peptide 3563.0013] |  | 6520 |  | 1830 |  | 691 | 
CC[C@H](C)[C@H](NC(=O)[C@H](CO)NC(=O)[C@H](Cc1ccc(O)cc1)NC(=O)[C@H](CC(C)C)NC(=O)[C@H](CCCCN)NC(=O)CN)C(=O)N[C@@H](CC(C)C)C(=O)N[C@@H](CCCCN)C(=O)N[C@H](C(=O)N[C@@H](CCC(N)=O)C(=O)N[C@@H](CO)C(=O)N1CCC[C@H]1C(=O)N[C@@H](CC(C)C)C(=O)N[C@@H](Cc1ccccc1)C(=O)N[C@H](C(=O)O)[C@@H](C)O)[C@@H](C)CC [Peptide 3563.0016] | 419 | 2380 | 2100 |  | 7020 | 6000 | 9070
CC(C)C[C@H](NC(=O)[C@H](C)NC(=O)[C@H](Cc1ccccc1)NC(=O)[C@H](CO)NC(=O)[C@H](CO)NC(=O)[C@@H](NC(=O)[C@H](CCCNC(=N)N)NC(=O)[C@H](CC(C)C)NC(=O)[C@H](CCCCN)NC(=O)[C@H](CCCCN)NC(=O)[C@@H](N)Cc1ccc(O)cc1)[C@@H](C)O)C(=O)N[C@@H](CC(N)=O)C(=O)N[C@@H](CC(C)C)C(=O)N1CCC[C@H]1C(=O)N[C@H](C(=O)O)[C@@H](C)O [Peptide 3563.0022] | 67 | 221 | 2.1 | 2650 | 15 |  | 3.3
CC[C@H](C)[C@H](N)C(=O)N[C@@H](CC(C)C)C(=O)N[C@@H](Cc1ccccc1)C(=O)N[C@@H](CO)C(=O)N[C@@H](Cc1ccc(O)cc1)C(=O)N[C@@H](Cc1ccccc1)C(=O)N[C@@H](CCC(N)=O)C(=O)N[C@@H](CC(=O)O)C(=O)N[C@@H](CC(C)C)C(=O)N[C@H](C(=O)N[C@H](C(=O)N[C@H](C(=O)N[C@@H](CC(C)C)C(=O)N1CCC[C@H]1C(=O)N[C@@H](Cc1ccccc1)C(=O)O)[C@@H](C)O)[C@@H](C)CC)C(C)C [Peptide 3563.0023] |  | 3820 |  | 12200 |  | 19 | 
CC[C@H](C)[C@H](NC(=O)[C@H](CC(C)C)NC(=O)[C@H](Cc1ccc(O)cc1)NC(=O)[C@@H](NC(=O)[C@H](Cc1ccccc1)NC(=O)[C@@H](N)CCCCN)[C@@H](C)O)C(=O)N[C@@H](CC(N)=O)C(=O)N[C@@H](Cc1ccc(O)cc1)C(=O)N[C@H](C(=O)N[C@@H](CCC(N)=O)C(=O)N[C@@H](CC(=O)O)C(=O)N[C@@H](CCC(=O)O)C(=O)N[C@H](C(=O)N[C@@H](CC(N)=O)C(=O)N[C@H](C(=O)O)[C@@H](C)O)[C@@H](C)CC)[C@@H](C)CC [Peptide 3563.0025] |  |  |  |  | 13700 | 13 | 
CC[C@H](C)[C@H](NC(=O)[C@H](CCC(=O)O)NC(=O)[C@@H](N)CC(=O)O)C(=O)N[C@@H](CC(N)=O)C(=O)N[C@H](C(=O)N[C@H](C(=O)N[C@@H](Cc1ccccc1)C(=O)N[C@@H](CO)C(=O)N[C@@H](CC(=O)O)C(=O)N[C@@H](Cc1ccc(O)cc1)C(=O)N[C@H](C(=O)N1CCC[C@H]1C(=O)N[C@@H](Cc1ccc(O)cc1)C(=O)N[C@H](C(=O)N[C@@H](Cc1ccccc1)C(=O)O)C(C)C)[C@@H](C)CC)[C@@H](C)CC)[C@@H](C)O [Peptide 3563.0026] |  | 6900 |  | 4550 | 15200 |  | 
CC[C@H](C)[C@H](NC(=O)[C@H](Cc1ccc(O)cc1)NC(=O)[C@H](CCC(N)=O)NC(=O)[C@H](Cc1c[nH]cn1)NC(=O)[C@@H](NC(=O)[C@@H](N)CCC(N)=O)[C@@H](C)CC)C(=O)N[C@@H](CCSC)C(=O)N[C@@H](C)C(=O)N[C@@H](CC(C)C)C(=O)N[C@@H](CCCNC(=N)N)C(=O)N[C@@H](CCC(=O)O)C(=O)N[C@@H](CCC(=O)O)C(=O)N[C@@H](Cc1ccc(O)cc1)C(=O)N[C@@H](Cc1ccccc1)C(=O)N[C@@H](CC(=O)O)C(=O)O [Peptide 3563.0027] | 51 | 122 | 817 | 897 | 1820 |  | 80
CC[C@H](C)[C@H](N)C(=O)N[C@@H](CC(=O)O)C(=O)N[C@@H](CC(C)C)C(=O)N[C@@H](CO)C(=O)N[C@H](C(=O)N[C@@H](CCC(N)=O)C(=O)N[C@@H](CC(N)=O)C(=O)N[C@@H](Cc1ccc(O)cc1)C(=O)N[C@@H](Cc1c[nH]cn1)C(=O)N[C@H](C(=O)N[C@@H](Cc1ccccc1)C(=O)N[C@@H](CC(C)C)C(=O)N[C@H](C(=O)N[C@@H](Cc1ccc(O)cc1)C(=O)N[C@H](C(=O)O)[C@@H](C)CC)[C@@H](C)CC)[C@@H](C)O)[C@@H](C)CC [Peptide 3563.0029] | 15600 | 9160 | 25000 |  |  |  | 23200
LSQLTYMIQFDQYI [Peptide 3563.0012] | 622 | 4120 |  | 43100 |  | 28 | 576
TLTAFGFASADLLEI [Peptide 3563.0005] | 5.3 |  |  |  | 847 | 118 | 
